Source: PMC8850433, “CRISPR-assisted rational flux-tuning and arrayed CRISPRi screening of an L-proline exporter for L-proline hyperproduction” (Nature Communications, 2022)

Molecular target: T1, Cgl2622 (Corynebacterium glutamicum, UniProt Q79VD1)
T1 construct: full-length membrane exporter, expressed from plasmid under IPTG-inducible Ptrc in cgl2622-deleted C. glutamicum
Type: cell-based
Conditions: intact C. glutamicum cells, CGXII medium, 20 g/L glucose, 3 mM Thr-Pro peptide, 30 °C; efflux

T1 sequence (Q79VD1 1-489): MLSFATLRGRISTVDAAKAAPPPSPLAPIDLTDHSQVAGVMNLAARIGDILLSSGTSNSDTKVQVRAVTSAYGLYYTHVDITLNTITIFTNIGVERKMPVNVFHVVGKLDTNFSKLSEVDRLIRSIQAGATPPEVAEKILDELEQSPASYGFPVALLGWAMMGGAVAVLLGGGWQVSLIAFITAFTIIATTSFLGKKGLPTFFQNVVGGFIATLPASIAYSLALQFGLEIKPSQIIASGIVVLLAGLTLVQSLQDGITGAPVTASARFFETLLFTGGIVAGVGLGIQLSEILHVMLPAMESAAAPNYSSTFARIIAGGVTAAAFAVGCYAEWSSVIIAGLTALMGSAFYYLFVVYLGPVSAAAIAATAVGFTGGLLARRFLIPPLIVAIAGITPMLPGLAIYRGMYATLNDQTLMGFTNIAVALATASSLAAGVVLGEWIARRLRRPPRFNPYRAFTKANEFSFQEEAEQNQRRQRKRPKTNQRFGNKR

O=C(O)[C@@H]1CCCN1 [L-proline]
Thr-Pro peptide uptake and amino acid export assay, deletion vs complementation,: These results further verify the function of Cgl2622 as an L-proline exporter.
